Values after ≈ are worked out from the molar mass of the structure shown. Where two headings read alike, the source gives them in different places.
How the values were obtained:
[1] = system: E. coli ATCC 25922; assay: MIC assay, CLSI broth microdilution, E. coli ATCC 25922 (AECO001); assay type: cell-based; conditions: for MIC: Escherichia coli, read-out: MIC AECO001
Summary of the method: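 Bacteria from overnight agar colonies, suspended in saline, added to serial two-fold dilutions in Mueller Hinton Broth at 5×10^5 CFU/mL final. Incubation 35° C., 20 hours, ambient air, per CLSI M7-A7 reference method.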

[2] = system: P. aeruginosa ATCC 27853; assay: MIC assay, CLSI broth microdilution, P. aeruginosa ATCC 27853 (APAE001); assay type: cell-based; conditions: for MIC: Pseudomonas aeruginosa, read-out: MIC APAE001
Summary of the method: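 CLSI M7-A7 broth microdilution in Mueller Hinton Broth using two-fold compound serial dilutions. Inoculum was prepared from the previous day's agar colonies at a final 5×10^5 CFU/mL. Plates were incubated at 35° C for 20 hours in ambient air.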

[3] = AECO001 is ATCC25922, 35° C., 20 hours
[4] = APAE001 is ATCC27853, 35° C., 20 hours

Compound	MIC ([1]; ATCC25922, 20 h) [µg/mL]	MIC ([2]; ATCC27853, 20 h) [µg/mL]	also measured
CN[C@@H]1[C@@H](O)[C@@H](O[C@@H]2[C@@H](O)[C@H](O[C@H]3OC(CNC[C@H]4C[C@@H](N)[C@@H](O)C4)=CC[C@H]3N)[C@@H](N)C[C@H]2NC(=O)[C@@H](O)CN)OC[C@]1(C)O [Example 69, 6′-(Methyl-1(R)-amino-2(S)-hydroxy-cyclopent-4(S)-yl)-1-(3-amino-2(S)-hydroxy-propionyl)-sisomicin]	< 1	1 to 16 (≈ 1.54 to 24.7 µM)	
CN[C@@H]1[C@@H](O)[C@@H](O[C@@H]2[C@@H](O)[C@H](O[C@H]3OC(CNCC4CC4)=CC[C@H]3N)[C@@H](N)C[C@H]2NC(=O)[C@H](O)CCN)OC[C@]1(C)O [Example 5, 6′-(Methyl-cyclopropyl)-1-(4-amino-2(R)-hydroxy-butyryl)-sisomicin]	< 1	1 to 16 (≈ 1.66 to 26.5 µM)	
CN[C@@H]1[C@@H](O)[C@@H](O[C@@H]2[C@@H](O)[C@H](O[C@H]3OC(CNCC4(N)CC4)=CC[C@H]3N)[C@@H](N)C[C@H]2NC(=O)[C@@H](O)CN)OC[C@]1(C)O [Example 67, 6′-(Methyl-1-Amino-cyclopropyl)-1-(3-amino-2(S)-hydroxy-propionyl)-sisomicin]	1 to 16 (≈ 1.66 to 26.5 µM)	1 to 16 (≈ 1.66 to 26.5 µM)	
CN[C@@H]1[C@@H](O)[C@@H](O[C@@H]2[C@@H](O)[C@H](O[C@H]3OC(CNCC(C)(C)CN)=CC[C@H]3N)[C@@H](N)C[C@H]2NC(=O)[C@@H](O)CN)OC[C@]1(C)O [Example 51, 6′-(2,2-Dimethyl-3-amino-propyl)-1-(3-amino-2(S)-hydroxy-propionyl)-sisomicin]			MIC AECO001 [1, 3]: A (MIC's of 1.0 μg/mL or less = A); MIC APAE001 [2, 4]: C (MIC's of greater than 16.0 μg/mL = C)
CN[C@@H]1[C@@H](O)[C@@H](O[C@@H]2[C@@H](O)[C@H](O[C@H]3OC(CNC[C@H]4C[C@H](N)C4)=CC[C@H]3N)[C@@H](N)C[C@H]2NC(=O)[C@@H](O)CCN)OC[C@]1(C)O [Example 33, 6′-(Methyl-trans-3-amino-cyclobutyl)-1-(4-amino-2(S)-hydroxy-butyryl)-sisomicin]	< 1	1 to 16 (≈ 1.58 to 25.3 µM)	
CN[C@@H]1[C@@H](O)[C@@H](O[C@@H]2[C@@H](O)[C@H](O[C@H]3OC(CN)=CC[C@H]3NCC(O)CN)[C@@H](N)C[C@H]2NC(=O)[C@@H](O)CCN)OC[C@]1(C)O (stereo partly drawn) [Example 101, 2′-(2-Hydroxy-3-amino-propyl)-1-(4-amino-2(S)-hydroxy-butyryl)-sisomicin]	< 1	1 to 16 (≈ 1.61 to 25.7 µM)	
CN[C@@H]1[C@@H](O)[C@@H](O[C@@H]2[C@@H](O)[C@H](O[C@H]3OC(CN)=CC[C@H]3NCCO)[C@@H](N)C[C@H]2NC(=O)[C@@H](O)CCN)OC[C@]1(C)O [Example 98, 2′-(2-Hydroxy-ethyl)-1-(4-amino-2(S)-hydroxy-butyryl)-sisomicin]	1 to 16 (≈ 1.69 to 27 µM)	1 to 16 (≈ 1.69 to 27 µM)	
CN[C@@H]1[C@@H](O)[C@@H](O[C@@H]2[C@@H](O)[C@H](O[C@H]3OC(CNCCCN)=CC[C@H]3N)[C@@H](N)C[C@H]2NC(=O)[C@H](O)CCN)OC[C@]1(C)O [Example 6, 6′-(3-Amino-propyl)-1-(4-amino-2(R)-hydroxy-butyryl)-sisomicin]	1 to 16 (≈ 1.65 to 26.4 µM)	1 to 16 (≈ 1.65 to 26.4 µM)	
CN[C@@H]1[C@@H](O)[C@@H](O[C@@H]2[C@@H](O)[C@H](O[C@H]3OC(CNCCCN)=CC[C@H]3N)[C@@H](N)C[C@H]2NC(=O)C(O)C2CNC2)OC[C@]1(C)O (stereo partly shown) [Example 76, 6′-(3-Amino-propyl)-1-(2-(azetidin-3-yl)-2-hydroxy-acetyl)-sisomicin]	1 to 16 (≈ 1.62 to 25.9 µM)	1 to 16 (≈ 1.62 to 25.9 µM)	
CN[C@@H]1[C@@H](O)[C@@H](O[C@@H]2[C@@H](O)[C@H](O[C@H]3OC(CN)=CC[C@H]3NCC3CCCN3)[C@@H](N)C[C@H]2NC(=O)[C@@H](O)CCN)OC[C@]1(C)O (stereo partly drawn) [Example 85, 2′-(Methyl-pyrrolidin-2-yl)-1-(4-amino-2(S)-hydroxy-butyryl)-sisomicin]	< 1	1 to 16 (≈ 1.58 to 25.3 µM)	
CN[C@@H]1[C@@H](O)[C@@H](O[C@@H]2[C@@H](O)[C@H](O[C@H]3OC(CNCC4CCNCC4)=CC[C@H]3N)[C@@H](N)C[C@H]2NC(=O)[C@H](O)CN)OC[C@]1(C)O [Example 8, 6′-Methyl-piperidinyl-1-(3-amino-2(R)-hydroxy-propionyl)-sisomicin]	< 1	1 to 16 (≈ 1.58 to 25.3 µM)	
CN[C@@H]1[C@@H](O)[C@@H](O[C@@H]2[C@@H](O)[C@H](O[C@H]3OC(CNCC4CC4)=CC[C@H]3N)[C@@H](N)C[C@H]2NC(=O)[C@H](O)CN)OC[C@]1(C)O [Example 7, 6′-Methyl-cyclopropyl-1-(3-amino-2(R)-hydroxy-propionyl)-sisomicin]	< 1	1 to 16 (≈ 1.7 to 27.2 µM)	
CN[C@@H]1[C@@H](O)[C@@H](O[C@@H]2[C@@H](O)[C@H](O[C@H]3OC(CNCCO)=CC[C@H]3N)[C@@H](N)C[C@H]2NC(=O)C2(O)CC(N)C2)OC[C@]1(C)O (stereo partly shown) [Example 62]	< 1	1 to 16 (≈ 1.65 to 26.5 µM)	
CN[C@@H]1[C@@H](O)[C@@H](O[C@@H]2[C@@H](O)[C@H](O[C@H]3OC(CNCCO)=CC[C@H]3N)[C@@H](N)C[C@H]2NC(=O)C2(O)CNC2)OC[C@]1(C)O [Example 37]	< 1	1 to 16 (≈ 1.69 to 27.1 µM)	
CN[C@@H]1[C@@H](O)[C@@H](O[C@@H]2[C@@H](O)[C@H](O[C@H]3OC(CNCCO)=CC[C@H]3N)[C@@H](N)C[C@H]2NC(=O)[C@H](O)CN)OC[C@]1(C)O [Example 9, 6′-(2-Hydroxy-ethyl)-1-(3-amino-2(R)-hydroxy-propionyl)-sisomicin]	1 to 16 (≈ 1.73 to 27.6 µM)	> 16	
CN[C@@H]1[C@@H](O)[C@@H](O[C@@H]2[C@@H](O)[C@H](O[C@H]3OC(CNC[C@@H]4C[C@H](N)CN4)=CC[C@H]3N)[C@@H](N)C[C@H]2NC(=O)[C@@H](O)CN)OC[C@]1(C)O [Example 65, 6′-(Methyl-4(S)-amino-pyrrolidin-2(S)-yl)-1-(3-amino-2(S)-hydroxy-propionyl)-sisomicin]	1 to 16 (≈ 1.58 to 25.3 µM)	1 to 16 (≈ 1.58 to 25.3 µM)	
CN[C@@H]1[C@@H](O)[C@@H](O[C@@H]2[C@@H](O)[C@H](O[C@H]3OC(CNCCCN)=CC[C@H]3N)[C@@H](N)C[C@H]2NC(=O)[C@@H](O)CCN)OC[C@]1(C)O [Example 48, 6′-(3-Amino-propyl)-1-(4-amino-2(S)-hydroxy-butyryl)-sisomicin]			MIC [1, 3]: < 1 µg/mL; MIC AECO001 ([1]; Table 3, E. coli ATCC25922): 1 µg/mL (≈ 1.65 µM); MIC [2, 4]: 1 to 16 µg/mL (≈ 1.65 to 26.4 µM)
CN[C@@H]1[C@@H](O)[C@@H](O[C@@H]2[C@@H](O)[C@H](O[C@H]3OC(CNCC4(CN)CC4)=CC[C@H]3N)[C@@H](N)C[C@H]2NC(=O)C2(O)CCNC2)OC[C@]1(C)O (stereo partly shown) [Example 79]	1 to 16 (≈ 1.55 to 24.9 µM)	> 16	
CN[C@@H]1[C@@H](O)[C@@H](O[C@@H]2[C@@H](O)[C@H](O[C@H]3OC(CN)=CC[C@H]3NCCCN)[C@@H](N)C[C@H]2NC(=O)[C@@H](O)CCN)OC[C@]1(C)O [Example 91, 2′-(3-Amino-propyl)-1-(4-amino-2(S)-hydroxy-butyryl)-sisomicin]	< 1	< 1	
CN[C@@H]1[C@@H](O)[C@@H](O[C@@H]2[C@@H](O)[C@H](O[C@H]3OC(CN)=CC[C@H]3NC(=O)CC3CNCCO3)[C@@H](N)C[C@H]2NC(=O)[C@@H](O)CCN)OC[C@]1(C)O (stereo partly drawn) [Example 92, 2′-(Morpholin-2-yl-acetyl)-1-(4-amino-2(S)-hydroxy-butyryl)-sisomicin]	< 1	> 16	
CN[C@@H]1[C@@H](O)[C@@H](O[C@@H]2[C@@H](O)[C@H](O[C@H]3OC(CNCC(O)CO)=CC[C@H]3N)[C@@H](N)C[C@H]2NS(=O)(=O)CCN)OC[C@]1(C)O (stereo partly shown) [Example 27, 6′-(2-Hydroxy-propanol)-1-(2-amino-ethylsulfonamide)-sisomicin]	1 to 16 (≈ 1.59 to 25.4 µM)	> 16	
CN[C@@H]1[C@@H](O)[C@@H](O[C@@H]2[C@@H](O)[C@H](O[C@H]3OC(CNCCO)=CC[C@H]3N)[C@@H](N)C[C@H]2NS(=O)(=O)CCN)OC[C@]1(C)O [Example 29, 6′-(2-Hydroxy-ethyl)-1-(2-amino-ethylsulfonamide)-sisomicin]	1 to 16 (≈ 1.67 to 26.7 µM)	> 16	
CN[C@@H]1[C@@H](O)[C@@H](O[C@@H]2[C@@H](O)[C@H](O[C@H]3OC(CNCC(O)CN)=CC[C@H]3N)[C@@H](N)C[C@H]2NC(=O)C(O)C2CNC2)OC[C@]1(C)O (stereo partly shown) [Example 82, 6′-(2-Hydroxy-3-amino-propyl)-1-(2-(azetidin-3-yl)-2-hydroxy-acetyl)-sisomicin]	1 to 16 (≈ 1.58 to 25.2 µM)	> 16	
CN[C@@H]1[C@@H](O)[C@@H](O[C@@H]2[C@@H](O)[C@H](O[C@H]3OC(CNCCO)=CC[C@H]3N)[C@@H](N)C[C@H]2NC(=O)[C@H](O)CCN)OC[C@]1(C)O [Example 2, 6′-(2-Hydroxy-ethyl)-1-(4-amino-2(R)-hydroxy-butyryl)-sisomicin]	1 to 16 (≈ 1.69 to 27 µM)	1 to 16 (≈ 1.69 to 27 µM)	
CN[C@@H]1[C@@H](O)[C@@H](O[C@@H]2[C@@H](O)[C@H](O[C@H]3OC(CN)=CC[C@H]3NC(=O)C3CCCN3)[C@@H](N)C[C@H]2NC(=O)[C@@H](O)CCN)OC[C@]1(C)O (stereo partly shown) [Example 90]	< 1	1 to 16 (≈ 1.55 to 24.8 µM)	
CN[C@@H]1[C@@H](O)[C@@H](O[C@@H]2[C@@H](O)[C@H](O[C@H]3OC(CNCC4(O)CC(N)C4)=CC[C@H]3N)[C@@H](N)C[C@H]2NC(=O)C2(O)CNC2)OC[C@]1(C)O (stereo partly shown) [Example 47]	1 to 16 (≈ 1.55 to 24.8 µM)	1 to 16 (≈ 1.55 to 24.8 µM)	
CN[C@@H]1[C@@H](O)[C@@H](O[C@@H]2[C@@H](O)[C@H](O[C@H]3OC(CNCC4(O)CC(N)C4)=CC[C@H]3N)[C@@H](N)C[C@H]2NC(=O)[C@@H](O)CCN)OC[C@]1(C)O (stereo partly shown) [Example 46]	< 1	1 to 16 (≈ 1.54 to 24.7 µM)	

Source: patent US11117915B2, “Antibacterial aminoglycoside analogs” (Cipla USA, Inc., priority 2007, dated 2021)
